B1: FGF7: Recombinant human FGF7 from Sigma (protein, UniProt P21781 32-194, looked up)
Fibroblast growth factor 7: CNDMTPEQMATNVNCSSPERHTRSYDYMEGGDIRVRRLFCRTQWYLRIDKRGKVKGTQEMKNNYNIMEIRTVAVGIVAIKGVESEFYLAMNKEGKLYAKKECNEDCNFKELILENHYNTYASAKWTHNGGEMFVALNQKGIPVRGKKTKKEQKTAHFLPMAIT

Tests used:
β-catenin = assay: Immunohistochemistry for β-catenin in Caco-2 cells; type: cell-based, human; details: compared to PBS treatment
Procedure: Caco-2 cells were grown to just prior to confluency on collagen IV coated glass slides. Cells were treated with PBS, FGF1, FGF2 and FGF7, and were incubated at 37° C. in a 5% CO2 humidified incubator for 1 hour, 4 hours, 24 hours or 48 hours, as noted. Cells were washed with PBS, fixed with 3.7% formalin for 10 minutes and washed again with PBS. Cells were treated with 0.1% Triton x-100 for 5 minutes to extract lipids. Cells were washed with PBS and preincubated with PBS supplemented with 1% bovine serum albumin. Primary antibodies were added for 4 hours at room temperature, and cells were washed with PBS. Primary antibodies used were as follows: rabbit anti-human ZO-1 (1:160; Zymed Laboratories, San Francisco, Calif.); mouse anti-human syndecan-1 (1:300; Santa Cruz Biotechnology); goat anti-human Fz-1 (1:125; Santa Cruz Biotechnology); rabbit anti-human caveolin-1 (1:250; Santa Cruz Biotechnology); goat anti-human glypican-1 (1:100; Santa Cruz Biotechnology); mouse anti-human E-cadherin (1:250; Zymed Laboratories); rabbit anti-human β-catenin (1:125; Cell Signaling Technology, Beverly, Mass.); and rabbit anti-human phospho-β-catenin (Ser33/37/Thr41; 1:125; Cell Signaling Technology, Beverly, Mass.).
Cells were then treated with secondary antibodies, Texas Red-labeled phalloidin (Molecular Probes, Eugene, Oreg.) or FLAER-FL1 (1:400; Protox Biotech, Victoria, BC, Canada) as appropriate for 1 hour in the dark at room temperature. […]
Cells, except those stained with phalloidin, were washed with PBS and stained with diamidino-2-phenylindole (DAPI) for 5 minutes at room temperature (Molecular Probes). […] Cells were examined by confocal microscopy (ZO-1 and phalloidin only), or by fluorescence microscopy. A Nikon HB10101AF fluorescence microscope was used and images were captured at room temperature using a Hitachi HVC20 camera and Scion image acquisition software. […]

T84 cells = assay: T84 proliferation assay (whole cell number); type: cell-based, human; details: for increased whole cell number: 100 ng/ml ligand, three days, vs PBS control
Procedure: Caco-2 cells were grown to just prior to confluence, and T84 cells were grown to confluence. Each flask was washed with 20 ml PBS and treated with 3 ml trypsin-EDTA at 37° C. for 20-60 minutes until cells detached. Cells were centrifuged for 3 minutes at 195×g. The supernatant was aspirated, and the cells were resuspended in 10 ml media. The cell density was measured using an electronic cell counter, and the suspension was diluted to 50,000 cells/ml. The suspension was plated at 1 ml/well into 12-well tissue culture plates. After a 24 hour incubation in a 5% CO2, 37° C. humidified incubator, the media was aspirated, the wells were washed with serum free media, and the cells were supplemented with media containing 0.1% FBS. The wells were then supplemented with 10 μl PBS, 50 mM sodium chlorate, or 200 μM TM, and incubated for 24 hours. Subsequently, cells were supplemented with 100 ng/ml FGF1, FGF2, FGF7, or 10 μl PBS, and incubated for 72 hours. Wells were then washed twice with PBS and treated with 0.5 ml trypsin-EDTA/well and incubated at 37° C. until cells detached. Whole cell number was determined using an electronic cell counter. Data was averaged over three experiments, each consisting of four wells per condition.

Molecule	cytoplasmic β-catenin after 24 hours (β-catenin)	effect of added agent on proliferative effect of FGF2 and FGF7 (T84 cells; TM 200 μM, FGF1 added to TM treated cells)	proliferation (in words) (T84 cells; over three days)	increased whole cell number (T84 cells) [%]
FGF1: Recombinant human FGF1 from Amgen	potentially reduced levels of cytoplasmic β-catenin	restored the proliferative capacity of these ligands	did not induce the proliferation	–
FGF2: Recombinant human FGF2, produced as described	induced markedly increased cytoplasmic β-catenin	–	–	24.8±8.8
B1	induced markedly increased cytoplasmic β-catenin	–	–	11.4±3.8
